Here are results for nine compounds from article PMC4829233, “Identification of Novel Chemical Scaffolds Inhibiting Trypanothione Synthetase from Pathogenic Trypanosomatids” (PLoS Neglected Tropical Diseases, 2016).

As usually defined, the inhibition is the relative decrease from the control value, in per cent. Usually IC50 stands for the concentration needed to halve the response being measured. A word on the EC50: it is the concentration needed to bring the measured effect to its halfway point.

TcTryS (Trypanosoma cruzi trypanothione synthetase), sequence (Q9GT49 whole entry): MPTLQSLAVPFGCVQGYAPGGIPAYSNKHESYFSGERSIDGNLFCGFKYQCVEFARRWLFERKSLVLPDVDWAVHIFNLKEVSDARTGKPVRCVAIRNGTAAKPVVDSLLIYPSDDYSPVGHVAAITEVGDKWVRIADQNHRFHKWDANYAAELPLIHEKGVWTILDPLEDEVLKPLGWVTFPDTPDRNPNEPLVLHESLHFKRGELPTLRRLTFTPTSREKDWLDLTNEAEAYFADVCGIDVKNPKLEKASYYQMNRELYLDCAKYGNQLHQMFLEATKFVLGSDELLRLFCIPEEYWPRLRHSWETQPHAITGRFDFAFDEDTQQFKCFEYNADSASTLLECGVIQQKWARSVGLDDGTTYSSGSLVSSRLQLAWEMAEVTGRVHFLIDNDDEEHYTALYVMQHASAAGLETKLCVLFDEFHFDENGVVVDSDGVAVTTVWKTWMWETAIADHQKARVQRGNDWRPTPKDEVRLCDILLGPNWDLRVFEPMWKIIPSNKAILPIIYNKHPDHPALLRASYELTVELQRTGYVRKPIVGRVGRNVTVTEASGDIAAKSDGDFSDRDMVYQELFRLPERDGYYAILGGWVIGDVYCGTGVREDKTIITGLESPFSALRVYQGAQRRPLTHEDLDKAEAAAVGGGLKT

In the first series the target is LiTryS (Leishmania infantum trypanothione synthetase) (Leishmania infantum, UniProt A4I2Z3). In words: biochemical. Type of series: biochemical.
LiTryS (Leishmania infantum trypanothione synthetase), sequence (A4I2Z3 1-652): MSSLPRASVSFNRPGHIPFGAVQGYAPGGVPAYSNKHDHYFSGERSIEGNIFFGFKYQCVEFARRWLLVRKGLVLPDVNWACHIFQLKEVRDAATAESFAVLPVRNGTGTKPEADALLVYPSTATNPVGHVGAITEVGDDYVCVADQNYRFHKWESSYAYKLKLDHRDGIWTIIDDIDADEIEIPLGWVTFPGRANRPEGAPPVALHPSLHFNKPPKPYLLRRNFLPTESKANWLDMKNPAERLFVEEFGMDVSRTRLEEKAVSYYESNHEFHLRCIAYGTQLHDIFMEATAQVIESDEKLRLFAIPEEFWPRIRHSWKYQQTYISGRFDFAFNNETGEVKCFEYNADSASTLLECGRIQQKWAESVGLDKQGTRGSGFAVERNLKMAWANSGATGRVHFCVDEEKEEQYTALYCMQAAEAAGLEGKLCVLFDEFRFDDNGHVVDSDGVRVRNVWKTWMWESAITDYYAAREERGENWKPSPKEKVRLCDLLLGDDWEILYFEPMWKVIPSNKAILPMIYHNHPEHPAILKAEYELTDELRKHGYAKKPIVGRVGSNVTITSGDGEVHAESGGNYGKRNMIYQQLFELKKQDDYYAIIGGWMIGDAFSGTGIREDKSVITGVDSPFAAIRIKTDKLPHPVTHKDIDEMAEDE
Settings: not given
In the case of `CC(C)c1ccc(CNCCCCCCCCCCNCc2ccc(C(C)C)cc2)cc1` [EAP1-47, N^1,N^10-bis(4-isopropylbenzyl)decane-1,10-diamine], the “LiTryS Activity ± 2σn-1 (%)” value is recorded as “halved”.

In the case of `[O-][n+]1onc2ccccc21` [J09/J34], the “LiTryS Activity ± 2σn-1 (%)” value is 84.9 ± 5.5; 4%.

Regarding `COc1ccc(CNCCCCCCNCc2ccc(OC)cc2)cc1` [APC1-98], the “LiTryS Activity ± 2σn-1 (%)” value is on record as 79.6 ± 5.6; 4%.

With `c1ccc(CNCCCCCCCCCCCCNCc2ccccc2)cc1` [EAP1-9], the “LiTryS Activity ± 2σn-1 (%)” value is recorded as 89.6 ± 9.4; 3%.

As for `COc1cc2no[n+]([O-])c2cc1OC` [Compound J32], the “LiTryS Activity ± 2σn-1 (%)” value is on record as 72.7 ± 7.2; 4%.

On to `[O-][n+]1onc2cc(Br)ccc21` [Compound J33], for which the “LiTryS Activity ± 2σn-1 (%)” value was 76.0 ± 6.8; 3%.

As to `COc1cc(CNCCCCCCCCCCNCc2ccc(O)c(OC)c2)ccc1O` [APC1-123], the “LiTryS Activity ± 2σn-1 (%)” value is 94.3 ± 8.2; 3%.

`[O-][n+]1onc2c(Cl)cc(Cl)cc21` [Compound J26]: the “LiTryS Activity ± 2σn-1 (%)” value is 88.0 ± 1.0; 3%.

With `COc1cc(CNCCCCNCc2ccc(O)c(OC)c2)ccc1O` [APC1-93], the “LiTryS Activity ± 2σn-1 (%)” value was 101.3 ± 8.7. 4%.

Still in this series, the particulars now being: read-out: % LiTryS inhibition ± 2σn-1.
As to `CC(C)c1ccc(CNCCCCCCCCCCNCc2ccc(C(C)C)cc2)cc1` [EAP1-47, N^1,N^10-bis(4-isopropylbenzyl)decane-1,10-diamine], the inhibition at 30 µM is 50%.

The series is the same for the next values; noted with them: read-out: LiTryS IC50 (estimated).
As to `CC(C)c1ccc(CNCCCCCCCCCCNCc2ccc(C(C)C)cc2)cc1` [EAP1-47, N^1,N^10-bis(4-isopropylbenzyl)decane-1,10-diamine], the IC50 was approximately 30 µM.

The test system of the next series is bloodstream Trypanosoma brucei brucei. Briefly: Proliferation/cytotoxicity assay, infective T. b. brucei. As to conditions: 24 h, read-out: T. b. Brucei EC50. Type of series: cell-based.
Consider `CC(C)c1ccc(CNCCCCCCCCCCNCc2ccc(C(C)C)cc2)cc1` [EAP1-47, N^1,N^10-bis(4-isopropylbenzyl)decane-1,10-diamine], for which the EC50 was determined as 0.2 ± 0.02 µM.

Another series concerns the target TcTryS (Trypanosoma cruzi trypanothione synthetase) (Trypanosoma cruzi, UniProt Q9GT49). In words: biochemical. Type of series: biochemical.
Settings: not given
For `CC(C)c1ccc(CNCCCCCCCCCCNCc2ccc(C(C)C)cc2)cc1` [EAP1-47, N^1,N^10-bis(4-isopropylbenzyl)decane-1,10-diamine], the “TcTryS Activity ± 2σn-1 (%)” value is “halved”.

On to `[O-][n+]1onc2ccccc21` [J09/J34], for which the “TcTryS Activity ± 2σn-1 (%)” value was 102.2 ± 3.3; 3%.

`COc1ccc(CNCCCCCCNCc2ccc(OC)cc2)cc1` [APC1-98]: the “TcTryS Activity ± 2σn-1 (%)” value was 94.2 ± 5.5; 2%.

On to `c1ccc(CNCCCCCCCCCCCCNCc2ccccc2)cc1` [EAP1-9], for which the “TcTryS Activity ± 2σn-1 (%)” value is on record as 87.3 ± 5.4; 4%.

In the case of `COc1cc2no[n+]([O-])c2cc1OC` [Compound J32], the “TcTryS Activity ± 2σn-1 (%)” value is on record as 98.1 ± 6.4; 4%.

Consider `[O-][n+]1onc2cc(Br)ccc21` [Compound J33], for which the “TcTryS Activity ± 2σn-1 (%)” value is reported as 98.1 ± 4.0; 3%.

With `COc1cc(CNCCCCCCCCCCNCc2ccc(O)c(OC)c2)ccc1O` [APC1-123], the “TcTryS Activity ± 2σn-1 (%)” value is 88.8 ± 6.5; 4%.

In the case of `[O-][n+]1onc2c(Cl)cc(Cl)cc21` [Compound J26], the “TcTryS Activity ± 2σn-1 (%)” value was 95.8 ± 1.1; 3%.

In the case of `COc1cc(CNCCCCNCc2ccc(O)c(OC)c2)ccc1O` [APC1-93], the “TcTryS Activity ± 2σn-1 (%)” value was 94.4 ± 2.4; 4%.

The series is the same for the next values; noted with them: read-out: % TcTryS inhibition ± 2σn-1.
Turning to `CC(C)c1ccc(CNCCCCCCCCCCNCc2ccc(C(C)C)cc2)cc1` [EAP1-47, N^1,N^10-bis(4-isopropylbenzyl)decane-1,10-diamine], the inhibition at 30 µM was found to be 50%.

For another series, the target named is TbTryS (Trypanosoma brucei trypanothione synthetase) (Trypanosoma brucei brucei, UniProt Q8IEX1). In words: biochemical.
TbTryS (Trypanosoma brucei trypanothione synthetase), sequence (Q8IEX1 1-627): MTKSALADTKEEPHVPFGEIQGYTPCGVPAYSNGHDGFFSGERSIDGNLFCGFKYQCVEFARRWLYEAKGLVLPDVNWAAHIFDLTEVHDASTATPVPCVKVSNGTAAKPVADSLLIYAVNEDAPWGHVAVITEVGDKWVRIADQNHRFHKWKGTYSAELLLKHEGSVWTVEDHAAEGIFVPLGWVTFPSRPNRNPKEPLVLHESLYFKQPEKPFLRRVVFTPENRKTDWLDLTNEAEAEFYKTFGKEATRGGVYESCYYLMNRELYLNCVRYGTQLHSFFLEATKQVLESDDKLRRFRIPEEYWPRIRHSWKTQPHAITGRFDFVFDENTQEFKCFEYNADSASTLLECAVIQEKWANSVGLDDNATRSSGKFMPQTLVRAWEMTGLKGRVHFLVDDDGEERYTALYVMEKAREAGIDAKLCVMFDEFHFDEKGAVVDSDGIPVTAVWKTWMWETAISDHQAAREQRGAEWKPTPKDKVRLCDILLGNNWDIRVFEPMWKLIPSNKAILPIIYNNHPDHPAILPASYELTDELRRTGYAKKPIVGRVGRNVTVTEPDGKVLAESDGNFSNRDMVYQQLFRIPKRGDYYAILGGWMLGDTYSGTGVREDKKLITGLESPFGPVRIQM
Settings: not given
As for `CC(C)c1ccc(CNCCCCCCCCCCNCc2ccc(C(C)C)cc2)cc1` [EAP1-47, N^1,N^10-bis(4-isopropylbenzyl)decane-1,10-diamine], the IC50 is approximately 30 µM and the “TbTryS Activity ± 2σn-1 (%)” value is “halved”.

With `[O-][n+]1onc2ccccc21` [J09/J34], the “TbTryS Activity ± 2σn-1 (%)” value is on record as 90.9 ± 5.9; 4%.

`COc1ccc(CNCCCCCCNCc2ccc(OC)cc2)cc1` [APC1-98]: the “TbTryS Activity ± 2σn-1 (%)” value is on record as 72.8 ± 3.7; 4%.

As for `c1ccc(CNCCCCCCCCCCCCNCc2ccccc2)cc1` [EAP1-9], the “TbTryS Activity ± 2σn-1 (%)” value is recorded as 74.9 ± 4.1; 4%.

Take `COc1cc2no[n+]([O-])c2cc1OC` [Compound J32]: the “TbTryS Activity ± 2σn-1 (%)” value is recorded as 93.4 ± 4.5; 4%.

Regarding `[O-][n+]1onc2cc(Br)ccc21` [Compound J33], the “TbTryS Activity ± 2σn-1 (%)” value was 96.5 ± 6.3; 3%.

On to `COc1cc(CNCCCCCCCCCCNCc2ccc(O)c(OC)c2)ccc1O` [APC1-123], for which the “TbTryS Activity ± 2σn-1 (%)” value was 86.0 ± 5.5; 3%.

For the compound `[O-][n+]1onc2c(Cl)cc(Cl)cc21` [Compound J26], the “TbTryS Activity ± 2σn-1 (%)” value is reported as 104.9 ± 5.7; 3%.

For `COc1cc(CNCCCCNCc2ccc(O)c(OC)c2)ccc1O` [APC1-93], the “TbTryS Activity ± 2σn-1 (%)” value is on record as 94.0 ± 9.1; 5%.

The series is the same for the next values; noted with them: read-out: % TbTryS inhibition ± 2σn-1.
Take `CC(C)c1ccc(CNCCCCCCCCCCNCc2ccc(C(C)C)cc2)cc1` [EAP1-47, N^1,N^10-bis(4-isopropylbenzyl)decane-1,10-diamine]: the inhibition at 30 µM is 50%.

A further series concerns TryS-RNAi T. b. brucei cell line. In words: Cytotoxicity towards T. b. brucei with downregulated TryS expression. Conditions: 100 nM; tetracycline-induced 48 h; ± S.D., n = 2. The method, then: The assay conditions to assess the cytotoxicity of compounds towards parasites and murine macrophages (cell line J774) are described in S1 Text. All assays were performed in duplicates or triplicates.
Total cell extracts from the WT and RNAi-TryS cell lines of T. b. brucei grown in the presence or absence of oxytetracycline were separated under reducing conditions on an SDS / 10% PAGE. The blotted membranes were incubated with mouse polyclonal antibodies against TbTryS (dilution 1:1000) followed by a horseradish peroxidase-conjugated anti-mouse IgG (dilution 1:10000). Reactive bands were detected by chemiluminescence using ECL plus (GE Healthcare) and quantified by densitometric analysis using the free software ImageJ (http://imagej.nih.gov/ij/).
The growth medium for WT and RNAi-TryS parasites was additionally supplemented with 0.2 µg/mL phleomycin and 2.5 µg/mL G418, and 5 µg/mL hygromycin only for the RNAi-TryS cell line. The RNAi of TryS was induced by adding 10 µg/mL oxytetracycline to the culture medium. […] Parasite viability was assessed in samples from cultures induced 48 h or not with oxytetracycline and grown in the presence and absence of compounds for 24 h, by manual cell counting (24-well culture plate) or flow cytometry (96-well culture plate).
With `CC(C)c1ccc(CNCCCCCCCCCCNCc2ccc(C(C)C)cc2)cc1` [EAP1-47, N^1,N^10-bis(4-isopropylbenzyl)decane-1,10-diamine], the “% cytotoxicity TryS-RNAi cells (treated vs. non-treated) induced” value is 98 ± 1%.

The series is the same for the next values; noted with them: 100 nM; ± S.D., n = 2.
`CC(C)c1ccc(CNCCCCCCCCCCNCc2ccc(C(C)C)cc2)cc1` [EAP1-47, N^1,N^10-bis(4-isopropylbenzyl)decane-1,10-diamine]: the “% cytotoxicity TryS-RNAi cells (treated vs. non-treated) non-induced” value is 76 ± 4%.

Still in this series, the particulars now being: EAP1-47 100 nM; nifurtimox 5 μM; TryS content 1/3 of non-induced or WT.
On to `CC(C)c1ccc(CNCCCCCCCCCCNCc2ccc(C(C)C)cc2)cc1` [EAP1-47, N^1,N^10-bis(4-isopropylbenzyl)decane-1,10-diamine], for which the “increase of cytotoxic effect/potency towards TryS-depleted parasites” value was 1.3 fold.

A further series concerns bloodstream T. b. brucei WT. Briefly: Analysis of intracellular thiols. Set-up: decrease of T(SH)2 content with respect to untreated cells: dose or concentration left out as unconfirmed. As to conditions: T. b. brucei WT, EAP1-47 100 nM, 24 h. It is filed as cell-based, Trypanosoma brucei brucei. How it is done:
The method is a modified version of that described in [62]. Briefly, L. infantum promastigotes or bloodstream T. b. brucei (WT and RNAi-TryS cell lines) treated or not with compounds (MOL2008 or EAP1-47, respectively) for 24 h were harvested by centrifugation (2000g, 10 min at 4°C), washed twice with PBS and resuspended at a density of 10^8 cells/0.1 mL of 40 mM Hepes pH 8.0 and 2 mM mono-bromobimane in methanol. After incubation at 70°C for 3 minutes, the samples were cooled on ice, then added of 100 μL 4 M methanesulfonic acid (adjusted to pH 1.5 with LiOH) and incubated overnight at 4°C. The supernatant containing the derivatized low molecular mass thiols was centrifuged at 13000g 40 min at 0°C.
On to `CC(C)c1ccc(CNCCCCCCCCCCNCc2ccc(C(C)C)cc2)cc1` [EAP1-47, N^1,N^10-bis(4-isopropylbenzyl)decane-1,10-diamine], for which the GSH content was 8.2 nmol thiol x 5x10^7 cells^-1, the “GSH content relative to non-treated cells” value stood at 139%, the “T(SH)2 content” value is recorded as 4.5 nmol thiol x 5x10^7 cells^-1 and the “T(SH)2 content relative to non-treated cells” value amounted to 72%.

Still in this series, the particulars now being: bloodstream T. b. brucei, 50 nM EAP1-47, 24 h.
Turning to `CC(C)c1ccc(CNCCCCCCCCCCNCc2ccc(C(C)C)cc2)cc1` [EAP1-47, N^1,N^10-bis(4-isopropylbenzyl)decane-1,10-diamine], the “increase of GSH level with respect to untreated cells” value is recorded as 39%.

The same series, now with this note: bloodstream T. b. brucei, EAP1-47, 24 h.
In the case of `CC(C)c1ccc(CNCCCCCCCCCCNCc2ccc(C(C)C)cc2)cc1` [EAP1-47, N^1,N^10-bis(4-isopropylbenzyl)decane-1,10-diamine], the “decrease of T(SH)2 content with respect to untreated cells” value came out at 28%.
